According to publication PMC11740094, “Design and synthesis of cyclic lipidated peptides derived from the C-terminus of Cx43 for hemichannel inhibition and cardiac endothelium targeting” (RSC Medicinal Chemistry, 2024):
Like-named read-outs stand apart in the source and are kept apart here. Residues, ends and D or L forms follow the SMILES beside them. *: point of attachment. Palmitoyl = CCCCCCCCCCCCCCCC(=O)*

What was measured:
[1] = target: T1, Cx43 HCs (HeLa–Cx43 cells) (Homo sapiens, UniProt P17302); experiment: ATP release assay in HeLa–Cx43 transfectants (selectivity); format: cell-based; details: for ATP release, mean (Table S4, Fig. 8b), HeLa-Cx43: calcium-free conditions, N = 3
T1 construct: expressed in transfected cells
Excerpt: (§1) Two cell types were chosen to assess the specificity of the Cx43 analogues. HeLa cells derived from human cervical cancer are the oldest and most commonly used immortalized cells. These cells are so-called communication-incompetent, i.e. known to not endogenously express connexins,[71] while SK-HEP-1 cells, a human liver sinusoid endothelial cell line, are devoid of Cx43 but express a small amount of Cx45.[72] Together with these parental cells, HeLa cells and SK-HEP-1 cells stably transfected with Cx43 were used (HeLa–Cx43 (ref. [73]) and SK-HEP-1–Cx43,[72] respectively). The presence and absence of Cx43 in the different cell lines were confirmed by Western blotting (Fig. 8a). The specificity of the control peptides Gap27, TAT-Gap19, αCT1 as well as the cyclic analogue 11 for Cx43 HCs was assessed through ATP release measurements in these pairs of cells, and is shown in Fig. 8b (and Table S4 ^†) for parental and HeLa–Cx43 cells and in Fig. 8c (and Table S5 ^†) for parental and SK-HEP-1–Cx43 cells. No induction of ATP release was observed when parental HeLa cells were exposed to calcium-free conditions. […] However, a doubling of ATP release was observed when parental SK-HEP-1 cells were exposed to calcium-free conditions, which was attenuated by the treatment with Cbx and all peptides, indicating an effect of the compounds on Cx45 HC. […] Nonetheless, the cardioprotective properties of αCT1 are generally ascribed to its interaction with the Cx43 protein,[23] thus it is reasonable to assume that these properties will be retained by the proteolytically stable 10 peptide.
(§2) ATP release assays were performed using previously described methods.[60] Briefly, B16-BL6 cells, HeLa cells or SK-HEP-1 cells were seeded into 96-well plates and grown until they reached confluence. […] The cells were then washed with calcium-free HBSS and incubated with aforementioned compounds in calcium-free HBSS for 30 minutes. Supernatants were collected and ATP bioluminescence measurements were performed using an ATP bioluminescence kit (Sigma-Aldrich) according to the manufacturer's instructions. ATP release under each condition was expressed as the percentage of calcium-free-induced ATP release. ATP release of cells incubated with HBSS was used as a control for basal ATP release. Triplicates were performed for each independent experiment.

[2] = target: T2, Cx43 HCs (B16-BL6 cells endogenously expressing Cx43) (Mus musculus, UniProt P23242); experiment: ATP release assay in B16-BL6 cells, hemichannels opened by calcium depletion; format: cell-based, murine
T2 construct: a murine melanoma cell line endogenously expressing Cx43; endogenous in cells; host or cells: B16-BL6 mouse melanoma cells
Description: The inhibitory capacity of the peptides on connexin HC activity was determined in vitro by measuring ATP release triggered by a depletion of extracellular Ca^2+, hereafter called “calcium-free” condition.[60] The assays were performed on B16-BL6 cells, a murine melanoma cell line endogenously expressing Cx43.[61] To measure ATP release, B16-BL6 cells were rinsed with a physiological Hanks' balanced salt solution (HBSS; control) followed by incubation for 5 minutes in HBSS containing the peptides. After rinsing with calcium-free HBSS (Ca-free), the cells were incubated with Ca-free containing the peptides for 30 minutes. Positive and negative control conditions included 30 minute incubation with HBSS, Ca-free without peptides or Ca-free containing 25 μM of the non-selective small-molecule inhibitor Cbx. ATP release in the supernatant was measured by bioluminescence. In order to determine the optimal concentration of peptides to be used in the assays, an initial round of testing was conducted on the control peptides αCT1, Gap27,[62]Gap19 (ref. [15]) and TAT-Gap19 (ref. [15]) as well as Cbx.[63] A doubling of ATP release was observed 30 minutes after the switch to the calcium-free solution, indicating effective Cx43 HC channel opening under these conditions (Fig. 5a and Table S1 ^†). As expected, the nonspecific connexin HC inhibitor Cbx (25 μM) reduced calcium-free-induced ATP release to nearly control conditions. At a high concentration (100 μM), Gap19, Gap27 and αCT1 had minimal to no effect on ATP release while TAT-Gap19 had the opposite effect inducing the release of ATP to a similar extent as the detergent Triton X-100 (1%). This might be due to the presence of the CPP motif, causing some disturbance at the level of the cellular membrane, and correlated with the previous findings on the use of the peptide at high concentrations.[64,65] […]
ATP release assays were performed using previously described methods.[60] […] ATP release under each condition was expressed as the percentage of calcium-free-induced ATP release. […]

[3] = target: T3, Cx45 HC (parental SK-HEP-1 cells, devoid of Cx43) (Homo sapiens, UniProt P36383); experiment: ATP release assay in parental SK-HEP-1 cells (selectivity); format: cell-based; details: calcium-free conditions, N = 3
T3 construct: are devoid of Cx43 but express a small amount of Cx45; endogenous in cells; host or cells: parental SK-HEP-1 cells
Excerpt: as §1, §2

[4] = tested on: parental HeLa cells (no endogenous connexins); experiment: ATP release assay in parental HeLa cells (selectivity); format: cell-based, human; details: calcium-free conditions, N = 3
Excerpt: as §1, §2

[5] = tested on: Cx43 HCs (SK-HEP-1–Cx43 cells); experiment: ATP release assay in SK-HEP-1–Cx43 transfectants (selectivity); format: cell-based, human; details: calcium-free conditions, N = 3
Excerpt: as §1, §2

[6] = tested on: Cx43 HC; details: cited from earlier work
Description: The inhibitory capacity of the peptides on connexin HC activity was determined in vitro by measuring ATP release triggered by a depletion of extracellular Ca^2+, hereafter called “calcium-free” condition.[60] The assays were performed on B16-BL6 cells, a murine melanoma cell line endogenously expressing Cx43.[61] To measure ATP release, B16-BL6 cells were rinsed with a physiological Hanks' balanced salt solution (HBSS; control) followed by incubation for 5 minutes in HBSS containing the peptides. After rinsing with calcium-free HBSS (Ca-free), the cells were incubated with Ca-free containing t ...

[7] = physchem; format: physicochemical; details: water
[8] = tested on: cardiac endothelium; details: binding to markers on the cell surface of the cardiac endothelium; cited from earlier work
Excerpt: To further increase the therapeutic potential of a drug candidate, targeted delivery to the organ or tissue of interest after systemic treatment is highly desirable. The use of homing peptides, i.e. peptides that selectively bind to markers expressed on the surface of different cell types, can increase the specificity and efficacy of drug delivery, while reducing the side effects linked to off-target interactions. A wide variety of peptides homing to different tissues and pathological conditions has been identified, mostly through phage-display techniques, and used as delivery vehicles for dru ...

[9] = parameters: method as in PMID 34063001; details: mouse serum; cited from earlier work
[10] = peptide applied extracellularly, read-out: IC50 on Cx43-mediated ATP release

T2 sequence (P23242 whole entry): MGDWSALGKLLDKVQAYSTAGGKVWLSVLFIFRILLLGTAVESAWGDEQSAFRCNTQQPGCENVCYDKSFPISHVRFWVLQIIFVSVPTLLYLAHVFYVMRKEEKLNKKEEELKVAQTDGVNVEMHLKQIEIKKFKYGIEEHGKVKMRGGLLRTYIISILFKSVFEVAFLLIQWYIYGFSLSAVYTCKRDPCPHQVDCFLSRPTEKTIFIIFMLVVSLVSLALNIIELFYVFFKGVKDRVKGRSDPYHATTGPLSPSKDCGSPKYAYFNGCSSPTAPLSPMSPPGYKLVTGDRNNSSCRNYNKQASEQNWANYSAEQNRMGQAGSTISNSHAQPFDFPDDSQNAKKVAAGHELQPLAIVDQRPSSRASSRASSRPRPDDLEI
T1 sequence (P17302 whole entry): as the sequence (P23242 whole entry) above, with E124D, V164I, R243K, T251S, P253A, S257A, P263Q, S341N, A344S, V347L counted along it
T3 sequence (P36383 whole entry): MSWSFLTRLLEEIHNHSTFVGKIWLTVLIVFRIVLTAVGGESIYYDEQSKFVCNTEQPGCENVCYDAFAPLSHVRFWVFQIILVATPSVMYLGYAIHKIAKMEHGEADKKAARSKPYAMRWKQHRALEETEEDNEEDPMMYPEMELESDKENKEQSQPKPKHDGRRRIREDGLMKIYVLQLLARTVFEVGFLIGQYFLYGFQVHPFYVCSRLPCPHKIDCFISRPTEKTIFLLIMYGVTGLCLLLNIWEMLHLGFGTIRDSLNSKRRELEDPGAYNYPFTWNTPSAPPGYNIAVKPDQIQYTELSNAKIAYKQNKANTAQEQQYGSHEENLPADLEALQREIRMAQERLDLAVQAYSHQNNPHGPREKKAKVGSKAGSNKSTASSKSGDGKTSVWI

Molecule: CC1(C)[C@@H](OC(=O)CCC(=O)O)CC[C@]2(C)[C@H]3C(=O)C=C4[C@@H]5C[C@@](C)(C(=O)O)CC[C@]5(C)CC[C@@]4(C)[C@]3(C)CC[C@@H]12 [Cbx, carbenoxolone]
- inhibition of calcium-free-induced ATP release in HeLa–Cx43 cells (in words) ([1]; Cbx 25 μM): completely inhibited
- ATP release, mean (Table S4, Fig. 8b), HeLa-Cx43 ([1]; Cbx 25 μM): 2.1867 nM
- ATP release, mean normalized to calcium-free condition (Table S2, Fig. 5b) ([2]; Cbx 25 μM, calcium-free 30 min, N = 3–9): 60.4766%
- ATP release, mean normalized to calcium-free condition (Table S3, Fig. 6b) ([2]; Cbx 25 μM, calcium-free 30 min, N = 5–10): 78.1965%
- ATP release, mean (Table S5, Fig. 8c), Parental SK-HEP-1 ([3]; Cbx 25 μM): 13.9931 nM
- ATP release, mean (Table S4, Fig. 8b), Parental HeLa ([4]; Cbx 25 μM): 0.9207 nM
- ATP release, mean (Table S5, Fig. 8c), SK-HEP-1-Cx43 ([5]; Cbx 25 μM): 26.4826 nM

Molecule: CC[C@H](C)[C@H](NC(=O)[C@H](CCC(=O)O)NC(=O)[C@@H](NC(=O)[C@H](CCC(N)=O)NC(=O)[C@@H](N)CCCCN)[C@@H](C)CC)C(=O)N[C@@H](CCCCN)C(=O)N[C@@H](CCCCN)C(=O)N[C@@H](Cc1ccccc1)C(=O)N[C@@H](CCCCN)C(=O)O [Gap19, H-KQIEIKKFK-OH] (H-KQIEIKKFK-OH)
- IC50 ([6]; intracellular application via whole-cell recording pipette, read-out: IC50 when applied intracellularly via a whole-cell recording pipette): 7 µM
- IC50 [6, 10]: ~50 µM

Molecule: CC[C@H](C)[C@H](NC(=O)[C@@H](NC(=O)[C@H](Cc1ccccc1)NC(=O)[C@@H](NC(=O)[C@@H](NC(=O)[C@H](CCCCN)NC(=O)[C@H](CCC(=O)O)NC(=O)[C@@H](NC(=O)[C@@H]1CCCN1C(=O)[C@H](CCCNC(=N)N)NC(=O)[C@@H](N)CO)[C@@H](C)O)[C@@H](C)O)[C@@H](C)CC)[C@@H](C)CC)C(=O)O [Gap27] (H-SRPTEKTIFII-OH)
- reduction of calcium-free-induced ATP release in HeLa–Cx43 cells ([1]; peptide 5 μM): 40–45%
- ATP release, mean (Table S4, Fig. 8b), HeLa-Cx43 ([1]; peptide 5 μM): 9.3690 nM
- ATP release, mean (Table S5, Fig. 8c), Parental SK-HEP-1 ([3]; peptide 5 μM): 8.5784 nM
- ATP release, mean (Table S4, Fig. 8b), Parental HeLa ([4]; peptide 5 μM): 0.9529 nM
- ATP release, mean (Table S5, Fig. 8c), SK-HEP-1-Cx43 ([5]; peptide 5 μM): 36.9304 nM

Molecule: CCCCCCCCCCCCCCCC(=O)N[C@@H](CCCCN)C(=O)N[C@@H](CCC(N)=O)C(=O)N[C@H](C(=O)N[C@@H](CCC(=O)O)C(=O)N[C@H](C(=O)N[C@@H](CCCCN)C(=O)N[C@@H](CCCCN)C(=O)N[C@@H](Cc1ccccc1)C(=O)N[C@@H](CCCCN)C(=O)O)[C@@H](C)CC)[C@@H](C)CC [Palm-Gap19] (Palmitoyl-KQIEIKKFK-OH)
- solubility [7]: ≥ 100 µM

Molecule: CC[C@H](C)[C@H](NC(=O)[C@H](CCC(=O)O)NC(=O)[C@@H](NC(=O)[C@H](CCC(N)=O)NC(=O)[C@H](CCCCN)NC(=O)[C@H](CCCNC(=N)N)NC(=O)[C@H](CCCNC(=N)N)NC(=O)[C@H](CCCNC(=N)N)NC(=O)[C@H](CCC(N)=O)NC(=O)[C@H](CCCNC(=N)N)NC(=O)[C@H](CCCNC(=N)N)NC(=O)[C@H](CCCCN)NC(=O)[C@H](CCCCN)NC(=O)[C@H](CCCNC(=N)N)NC(=O)CNC(=O)[C@@H](N)Cc1ccc(O)cc1)[C@@H](C)CC)C(=O)N[C@@H](CCCCN)C(=O)N[C@@H](CCCCN)C(=O)N[C@@H](Cc1ccccc1)C(=O)N[C@@H](CCCCN)C(=O)O [TAT-Gap19] (H-YGRKKRRQRRRKQIEIKKFK-OH)
- reduction of calcium-free-induced ATP release in HeLa–Cx43 cells ([1]; peptide 5 μM): 40–45%
- ATP release, mean (Table S4, Fig. 8b), HeLa-Cx43 ([1]; peptide 5 μM): 10.9629 nM
- ATP release, mean (Table S5, Fig. 8c), Parental SK-HEP-1 ([3]; peptide 5 μM): 15.3639 nM
- IC50 [6, 10]: 7 µM
- ATP release, mean (Table S4, Fig. 8b), Parental HeLa ([4]; peptide 5 μM): 1.3701 nM
- ATP release, mean (Table S5, Fig. 8c), SK-HEP-1-Cx43 ([5]; peptide 5 μM): 55.5511 nM

Molecule: CC(=O)N[C@@H](CO)C(=O)N[C@@H](CCCNC(=N)N)C(=O)N1CCC[C@H]1C(=O)N[C@@H](CCCNC(=N)N)C(=O)N1C[C@@H]2C[C@H]1C(=O)N[C@@H](CC(=O)O)C(=O)N[C@@H](CC(=O)O)C(=O)N[C@@H](CC(C)C)C(=O)N[C@@H](CCC(=O)O)C(=O)N[C@H](C(N)=O)Cc1cn2nn1 [compound 11]
- reduction of calcium-free-induced ATP release in HeLa–Cx43 cells ([1]; peptide 5 μM): 40–45%
- ATP release, mean (Table S4, Fig. 8b), HeLa-Cx43 ([1]; peptide 5 μM): 8.7419 nM
- ATP release, mean (Table S5, Fig. 8c), Parental SK-HEP-1 ([3]; peptide 5 μM): 7.9522 nM
- ATP release, mean (Table S4, Fig. 8b), Parental HeLa ([4]; peptide 5 μM): 1.5371 nM
- ATP release, mean (Table S5, Fig. 8c), SK-HEP-1-Cx43 ([5]; peptide 5 μM): 38.4712 nM

Molecule: CRPPR [cardiac endothelium-homing pentapeptide]
- selectivity of targeting the heart [8]: > 300 fold

Molecule: H-RPRPDDLEI-OH [αCT11]
- time in which the peptide was found to be degraded [9]: 30 min

Molecule: H-RQPKIWFPNRRKPWKKRPRPDDLEI-OH [αCT1]
- reduction of calcium-free-induced ATP release in HeLa–Cx43 cells ([1]; peptide 5 μM): 40–45%
- ATP release, mean (Table S4, Fig. 8b), HeLa-Cx43 ([1]; peptide 5 μM): 9.6282 nM
- ATP release, mean (Table S5, Fig. 8c), Parental SK-HEP-1 ([3]; peptide 5 μM): 6.6804 nM
- ATP release, mean (Table S4, Fig. 8b), Parental HeLa ([4]; peptide 5 μM): 1.6218 nM
- ATP release, mean (Table S5, Fig. 8c), SK-HEP-1-Cx43 ([5]; peptide 5 μM): 39.5655 nM

Molecule: Triton X-100
- ATP release, mean normalized to calcium-free condition (Table S1, Fig. 5a) ([2]; Triton X-100 1%, cell lysis control, N = 3–9): 248.6069%
